Test results reported in US20150374784A1, “COMPOSITIONS AND METHODS FOR REDUCING GERM CELL DEATH” (Los Angeles Biomedical Research Institute at Harbor-UCLA …, priority 2014, published 2015).
Structures can show the parent of a compound that is named as a salt.

Experiments:
[1] = system: B16 melanoma cells; type: cell-based; conditions: B16 cells in culture
Description: Furthermore, the autophagy induction of humanin may be related to its apparent effects of enhancing longevity observed in other systems.

[2] = system: germ cells in seminiferous tubules; assay: Germ cell apoptosis in mouse seminiferous tubule cultures ex vivo (TUNEL); type: cell-based; conditions: 12 hours; for germ cell apoptosis (number of apoptotic germ cells) compared to control: DOX 10 μM (high dose), hydrochloride
Procedure: A total of 15 young adult (12-13 week-old) mice were used for these ex vivo studies. The animals were sacrificed with a 5% pentobarbital (200 mg/Kg) IP injection. Testes were dissected and after removing the tunica albuginea, seminiferous tubules isolated from testes were cut into small segments under a dissecting microscope and light and dark segments were separated by dissection. Ten to twelve segments were placed (2 mm in length) in each well on a six well plate with 2 ml serum free Ham F-10 culture medium (GIBCO, Life Technologies, Thermo Fisher Scientific Corp., Carlsbad, Calif.) with the following treatments: control (Con, n=10), heat (43° C., 15 minutes, used as a positive control, n=10); HN 10 μg/mL (n=9); DOX 10 mcM (Dox10, n=10); and DOX 10 mcM+Humanin 10 μg/mL (Dox10+HN, n=10). For these experiments, n represents the total number of times the treatment was repeated using different animals. After 12 hours of incubation at 34° C. the seminiferous tubules from each treatment group were used to make “squashed” seminiferous tubule samples on a slide for TUNEL (TdT-mediated dUTP nick-end labeling) assay to detect germ cell apoptosis (Erkkila, et al., 1997; Toppari & Parvinen, 1985). To quantify the rate of germ cell apoptosis under a light microscope at 400× magnification, a square grid fitted within the eyepiece provided a reference area of 62,500 μm^2. The TUNEL positive apoptotic germ cells within the frame of grid were counted in 4 segments of seminiferous tubules in each group. The incidence of germ cell apoptosis was expressed as the number of apoptotic germ cells per mm^2.
A total of 15 mice were used for ex vivo studies. The animals were sacrificed and seminiferous tubules isolated from testes were cut into small segments under a dissecting microscope to identify light (early stages I-IV and late stages XI-XII) of the seminiferous epithelium) and dark (middle stages VII-VIII) segments. Ten to twelve light segments (2 mm in length) were placed per well on a six well plate with 2 ml serum free medium of F-10 Ham nutrient mixture (Gibco, Life Technologies, Grand Island, N.Y.) following these treatments: control (Con, n=15 where n is the number of times the treatment was repeated with segments obtained from different donor animals), heat (43° C., 15 min.; used as a positive control, n=10), HN 10 μg/mL (HN, n=9), doxorubicin 1 μM (Dox1, n=7), doxorubicin 1 μM+HN 10 μg/mL (Dox1+HN, n=7), doxorubicin 10 μM (Dox10, n=10), and doxorubicin 10 μM+HN 10 μg/mL (Dox10+HN, n=10). After 12 hours of incubation at 34° C. with 5% CO2, the seminiferous tubules from the seven treatment groups were used to make “squashed” seminiferous tubule preparations on a slide for TUNEL assay to detect germ cell apoptosis (Erkkila K, et al., 1997). To quantify the rate of germ cell apoptosis, the squashed segments of seminiferous tubules were examined with an American Optical Microscope (Scientific Instruments, Buffalo, N.Y.) with a 40×objective and a 10×eyepiece lens. A square grid fitted within the eyepiece provided a reference area of 62,500 μm^2. The TUNEL positive apoptotic germ cells within the frame of grid were counted in 4 segments of seminiferous tubules in each group. The incidence of germ cell apoptosis was expressed as the number of apoptotic germ cells per mm^2.

[3] = system: Leydig cells; assay: Leydig cell depletion and testosterone levels in rats; type: in vivo, rat
[4] = system: male germ cells; conditions: EDS 80 mg/kg IP 3 days before; CP 70 mg/kg BW
[5] = system: male germ cells; type: in vivo, mouse; conditions: for effect of adding the analog on the preventive effect of HN against CP-induced germ cell apoptosis: each peptide 40 mg/kg BW; for spontaneous germ cell apoptosis, peptide alone: single IP, 24 hours, no CP; for effect on CP-induced germ cell apoptosis, early+late stages / inhibition of (protection against) CP-induced germ cell apoptosis, early+late stages: stages I-IV and XI-XII; for effect on CP-induced germ cell apoptosis, early+late stages / effect on CP-induced germ cell apoptosis, middle stages: 40 mg/kg BW; for inhibition of (protection against) CP-induced germ cell apoptosis, early+late stages: HN, HN-C8P 40 mg/kg BW
Procedure: (§1) For the HN analog experiments, male mice were divided into seven groups (n=4-5 per group) and received one of the following treatments and sacrificed after 24 hours: 1) vehicle (control); 2) a single intra-peritoneal (IP) injection of HN peptide [HN, 40 mg/Kg body weight (BW)]; 3) a single IP injection of CP (CP, 200 mg/Kg BW); 4) IP injection of CP and HN (CP+HN); 5) a single IP injection of each HN analog (HNG 5 mg/Kg BW, HNG-F6A 5 mg/Kg BW, HN-S7A 40 mg/Kg BW, HN-C8P 40 mg/Kg BW, or HN-L12A 40 mg/Kg BW); 6) IP injection of CP and each HN analog (CP+HNG, HNG-F6A, HN-S7A, HN-C8P, or HN-L12A); and 7) IP injection of CP+HN+HN analog (HN-S7A, HN-C8P, or HN-L12A; to assess whether the analogs has enhancing or inhibitory effect on HN).
(§2) To facilitate testicular fixation by using a whole-body perfusion technique, all animals were injected with heparin (130 IU/100 g BW, IP) 15 min before a lethal injection of sodium pentobarbital (200 mg/kg BW, IP) (Lue Y H, et al., 1999). One testis was removed and weighed after perfusion with saline. Portions of testicular parenchyma were snap frozen in liquid nitrogen, and stored at −80 C for Western blotting. The other testis was fixed by vascular perfusion with Bouin's solution, and processed with routine paraffin embedding for in situ detection of apoptosis.
Detection of apoptotic cells was performed in Bouin's′-fixed, paraffin-embedded testicular sections by the terminal deoxynucleotidyl transferase (TdT)-mediated deoxy-UTP nick end labeling (TUNEL) technique (Sinha Hikim A P, et al., 1997) using an ApopTag-peroxidase kit (Chemicon International, Inc., Temecula, Calif.). Enumeration of the Sertoli cell nuclei with distinct nucleoli and apoptotic germ cell population was quantified at stages I-IV (early stages), stages VII-VIII (middle stages) and stages XI-XII (late stages) of the seminiferous epithelial cycle using an Olympus BH-2 microscope (New Hyde Park, N.Y.). Stages were identified according to the criteria proposed by Russell et al for paraffin sections (Russell L, 1977). The rate of germ cell apoptosis (apoptotic index, AI) was expressed as the number of apoptotic germ cells per Sertoli cells (Sinha Hikim A P, et al., 1997).

[6] = system: cells; conditions: Table 1, description of analogs; cited from earlier work
[7] = system: IGFBP-3, membrane receptor, BAX, HN; conditions: Table 1, description of analogs; cited from earlier work
[8] = system: STAT3; assay: STAT3 phosphorylation in testis by western blot; type: in vivo, mouse; conditions: testis homogenates; for STAT3 phosphorylation (phosphorylated STAT3/STAT3) compared with control: treatment alone; for CP suppressed STAT3 (Ser727) phosphorylation: with CP 200 mg/Kg
Procedure: as §1, §2
Western blotting was performed as described previously (Jia Y, et al., 2009). In brief, proteins were denatured and separated by sodium dodecyl sulfate-polyacrylamide gel electrophoresis (SDS-PAGE) system (Invitrogen, Carlsbad, Calif.). After transferring, the Immuno-blot PVDF Membrane (Bio-Rad, Hercules, Calif.) was blocked for 1 h and then probed using anti-STAT3 or anti-pSer727 STAT3 (Cell signaling Technology, Inc., Beverly, Mass.) overnight at 4 C with constant shaking. After washing, membrane was then incubated with an anti-mouse (for STAT3 antibody, Santa Cruz Biotechnology, Santa Cruz, Calif.) or anti-rabbit (for pSer727 STAT3 antibody, Amersham Biosciences, Piscataway, N.J.) IgG-HRP secondary antibody. All antibodies were diluted in blocking buffer. For immunodetection, membrane was incubated with enhanced chemiluminescence solutions per the manufacturer's specifications (Amersham Biosciences, Piscataway, N.J.), and exposed to Hyperfilm ECL (Denville Scientific Inc., Metuchen, N.J.).

[9] = rats, EDS 80 mg/kg, CP 70 mg/kg BW, HN 40 mg/kg BW, with or without EDS pre-treatment

Cn1cnc(N)c2ncnc1-2 [3-MA]
additive effect of humanin in doxorubicin treated B16 cells, with autophagy inhibitor [1]: diminished the additive effect of humanin

COc1cccc2c1C(=O)c1c(O)c3c(c(O)c1C2=O)C[C@@](O)(C(=O)CO)C[C@@H]3O[C@H]1C[C@H](N)[C@H](O)[C@H](C)O1 [DOX, doxorubicin hydrochloride, reference compound]
germ cell apoptosis (number of apoptotic germ cells) compared to control [2]: significantly higher number of apoptotic germ cells | germ cell apoptosis (number of apoptotic germ cells) compared to control ([2]; listed as doxorubicin): significantly increased apoptosis | germ cell apoptosis compared with control ([2]; doxorubicin 1 μM (low dose)): increased apoptosis but did not reach statistical difference

CS(=O)(=O)OCCOS(C)(=O)=O [EDS, ethane dimethanesulfonate]
Leydig cells in the interstitial spaces (testis histology) ([3]; EDS for three days): depletion of Leydig cells | intratesticular testosterone levels [3, 9]: decreased to very low levels | serum testosterone levels [3, 9]: decreased to very low levels | germ cell apoptosis at early (I-VI) and late (IX-XIV) stages, EDS pre-treated rats, compared to control [4]: did not significantly increase germ cell apoptosis | germ cell apoptosis in middle (VII-VIII) stages, EDS pre-treated rats [4]: had significant acute cytotoxic effects on germ cells

CCN(CC)CCCC(C)Nc1ccnc2cc(Cl)ccc12 (stereo not drawn) [chloroquine]
additive effect of humanin in doxorubicin treated B16 cells, with autophagy inhibitor [1]: diminished the additive effect of humanin

HN-L12A: HN with a substitution of alanine for 12th leucine, HN antagonist dimerizes with HN preventing HN binding to receptor (MAPRGFSCLLLATSEIDLPVKRRA)
effect of adding the analog on the preventive effect of HN against CP-induced germ cell apoptosis [5]: completely blocked the preventive effect of HN | spontaneous germ cell apoptosis, peptide alone [5]: did not change the spontaneous germ cell apoptosis | effect on CP-induced germ cell apoptosis, early+late stages [5]: unable to rescue | effect on CP-induced germ cell apoptosis, middle stages ([5]; stages VII-VIII): unable to rescue | Cytoprotective Action [6]: HN antagonist, forms inactive dimer

MAPRGASCLLLLTGEIDLPVKRRA [HNG-F6A]
spontaneous germ cell apoptosis, peptide alone [5]: did not change spontaneous germ cell apoptosis | inhibition of (protection against) CP-induced germ cell apoptosis, early+late stages ([5]; HNG, HNG-F6A 5 mg/kg BW): ~38% | prevention of CP-induced germ cell apoptosis, middle stages ([5]; stages VII-VIII, HNG, HNG-F6A 5 mg/kg BW): ~42%

MAPRGASCLLLLTSEIDLPVKRRA [HN-F6A]
Cytoprotective Action [6]: Similar/more effective than HN. | Characteristics [7]: Loss of IGFBP-3 binding

MAPRGFACLLLLTSEIDLPVKRRA [HN-S7A]
STAT3 phosphorylation (phosphorylated STAT3/STAT3) compared with control [8]: did not change STAT3 phosphorylation | CP suppressed STAT3 (Ser727) phosphorylation [8]: restored CP-induced Ser 727-phosphorylation of STAT3 | effect of adding the analog on the preventive effect of HN against CP-induced germ cell apoptosis [5]: did not change the effect of HN on CP-induced apoptosis | spontaneous germ cell apoptosis, peptide alone [5]: did not change the spontaneous germ cell apoptosis | effect on CP-induced germ cell apoptosis, early+late stages [5]: inhibited | effect on CP-induced germ cell apoptosis, middle stages ([5]; stages VII-VIII): had better protective effect than HN | Cytoprotective Action [6]: Not effective, prevents HN self- | Characteristics [7]: Loss of membrane receptor

MAPRGFSALLLLTSEIDLPVKRRA [HN-C8A, HN mutant, Cys8 to Ala]
Cytoprotective Action [6]: Not effective, prevents HN self- | Characteristics [7]: Loss of membrane receptor

MAPRGFSPLLLLTSEIDLPVKRRA [HN-C8P]
STAT3 phosphorylation (phosphorylated STAT3/STAT3) compared with control [8]: did not change STAT3 phosphorylation | CP suppressed STAT3 (Ser727) phosphorylation [8]: restored CP-induced Ser 727-phosphorylation of STAT3 | effect of adding the analog on the preventive effect of HN against CP-induced germ cell apoptosis [5]: did not change the preventive effect of HN | spontaneous germ cell apoptosis, peptide alone [5]: did not change the spontaneous germ cell apoptosis | effect on CP-induced germ cell apoptosis, early+late stages [5]: showed less protection against CP-induced apoptosis | inhibition of (protection against) CP-induced germ cell apoptosis, early+late stages ([5]; HNG, HNG-F6A 5 mg/kg BW): ~30% | effect on CP-induced germ cell apoptosis, middle stages ([5]; stages VII-VIII): no significant effect in middle (VII-VIII) stages | Cytoprotective Action [6]: Not effective, blocks intracellular HN | Characteristics [7]: Loss of BAX binding
